Reference: ChEMBL document CHEMBL1135516, “Three-dimensional quantitative structure-activity relationship analysis of ligand binding to human sequence antidigoxin monoclonal antibodies using comparative molecular field analysis” (J Med Chem, 2002)

Legend:
[1] = system: Monoclonal antibody (mAb); assay: Binding affinity against human monoclonal antibody (mAb)-11E6
[2] = system: Monoclonal antibody (mAb); assay: Binding affinity against murine monoclonal antibody (mAb)-40-50
[3] = system: Monoclonal antibody (mAb); assay: Binding affinity against human monoclonal antibody (mAb)-1B3
[4] = system: Monoclonal antibody (mAb); assay: Binding affinity against human monoclonal antibody (mAb)-5C2
[5] = system: Monoclonal antibody (mAb); assay: Binding affinity against human monoclonal antibody (mAb)-7F2
[6] = target: Monoclonal antibody (mAb); assay: Binding affinity against Monoclonal antibody mAB-1B3 using [3H]digoxin as radioligand
[7] = target: Monoclonal antibody (mAb); assay: Binding affinity against Monoclonal antibody mAB-1B3 using [3H]digitoxin as radioligand
[8] = target: Monoclonal antibody (mAb); assay: Kinetic parameter against Monoclonal antibody mAB-1B3

Compound | IC50 ratio [1] | Relative Ki [2] | IC50 ratio [3] | IC50 ratio [4] | IC50 ratio [5] | Ki [6] [nM] | Ki [7] [nM] | Kd [8] [nM]
C[C@@H]1O[C@H](O[C@H]2CC[C@@]3(C)[C@H](CC[C@@H]4[C@@H]3CC[C@]3(C)[C@@H](C5=CC(=O)OC5)CC[C@]43O)C2)[C@@H](O)[C@@H](O)[C@@H]1O | 29 | 0.6 | 40 | 21 | 22 |  |  | 
C[C@H]1O[C@@H](O[C@H]2CC[C@@]3(C)[C@H](CC[C@@H]4[C@@H]3C[C@@H](O)[C@]3(C)[C@@H](C5=CC(=O)OC5)CC[C@]43O)C2)C[C@H](O)[C@@H]1O | 0.9 | 0.6 | 5.9 | 1.3 | 1 |  |  | 
C[C@]12CC[C@H]3[C@@H](CC[C@]4(O)C[C@@H](O)CC[C@]34C=O)[C@@]1(O)CC[C@@H]2C1=CC(=O)OC1 | 66 | 4 | 3000 | 470 | 84 |  |  | 
C[C@]12C[C@@H](O)[C@H]3[C@@H](CC[C@]4(O)C[C@@H](O)C[C@@H](O)[C@]34CO)[C@@]1(O)CC[C@@H]2C1=CC(=O)OC1 | 6600 | 9 | 52000 | No inhibition | 13000 |  |  | 
CC(=O)O[C@H]1CC[C@]2(C=O)[C@H]3CC[C@]4(C)[C@@H](C5=CC(=O)OC5)CC[C@]4(O)[C@@H]3CC[C@]2(O)C1 | 18 | 10 | 600 | 44 | 17 |  |  | 
C[C@@H]1O[C@@H](O[C@H]2C[C@@H](O)[C@]3(CO)[C@H]4[C@H](O)C[C@]5(C)[C@@H](C6=CC(=O)OC6)CC[C@]5(O)[C@@H]4CC[C@]3(O)C2)[C@H](O)[C@H](O)[C@H]1O | 38000 | 7 | 4100 | No inhibition | 39000 |  |  | 
C[C@]12CC[C@H](O)C[C@H]1CC[C@@H]1[C@@H]2CC[C@]2(C)[C@@H](C3=CC(=O)OC3)[C@@H](O)C[C@]12O | 2100 | 93 | 4700 | 2700 | 2000 |  |  | 
CC(=O)[C@H]1CC[C@H]2[C@@H]3CCC4=CC(=O)CC[C@]4(C)[C@H]3CC[C@]12C [PROGESTERONE] | 100 |  | 36000 | 55 | 69 | 36000 |  | 
CC(=O)O[C@H]1C[C@]2(O)[C@@H]3CC[C@@H]4C[C@@H](O[C@@H]5C[C@H](O)[C@H](O[C@H]6C[C@H](O)[C@H](O[C@H]7C[C@H](O)[C@H](O)[C@@H](C)O7)[C@@H](C)O6)[C@@H](C)O5)CC[C@]4(C)[C@H]3CC[C@]2(C)[C@H]1C1=CC(=O)OC1 | 400 | 58 | 49 | 290 | 330 |  |  | 
CC(=O)O[C@H]1CC[C@@]2(C)[C@H](CC[C@@H]3[C@@H]2C[C@@H](O)[C@]2(C)[C@@H](C4=CC(=O)OC4)CC[C@]32O)C1 | 96 | 0.7 | 70 | 140 | 110 |  |  | 
C[C@H]1O[C@@H](O[C@H]2[C@@H](O)C[C@H](O[C@H]3[C@@H](O)C[C@H](O[C@H]4CC[C@@]5(C)[C@H](CC[C@@H]6[C@@H]5C[C@@H](O)[C@]5(C)[C@@H](C7=CC(=O)OC7)CC[C@]65O)C4)O[C@@H]3C)O[C@@H]2C)C[C@H](O)[C@@H]1O [DIGOXIN] | 1 | 1 | 1 | 1 | 1 | 1.2 | 0.8 | 3.1
C[C@H]1O[C@@H](O[C@H]2[C@@H](O)C[C@H](O[C@H]3[C@@H](O)C[C@H](O[C@H]4CC[C@@]5(C)[C@H](CC[C@@H]6[C@@H]5CC[C@]5(C)[C@@H](C7=CC(=O)OC7)[C@@H](O)C[C@]65O)C4)O[C@@H]3C)O[C@@H]2C)C[C@H](O)[C@@H]1O | 73 | 16 | 11 | 130 | 81 |  |  | 
C[C@]12CC[C@H](O)C[C@H]1CC[C@@H]1[C@@H]2CC[C@]2(C)[C@@H](C3=CC(=O)OC3)CC[C@]12O [DIGITOXIGENIN] | 14 | 2 | 1800 | 14 | 16 | 1000 | 880 | 
C[C@]12CC[C@H](O)C[C@H]1CC[C@@H]1[C@@H]2C[C@@H](O)[C@]2(C)[C@@H](C3=CC(=O)OC3)CC[C@]12O [DIGOXIGENIN] | 6.2 | 2 | 2700 | 2.9 | 4.6 | 3100 | 1700 | 
CO[C@H]1C[C@H](O[C@H]2CC[C@@]3(C)[C@H](CC[C@@H]4[C@@H]3CC[C@]3(C)[C@@H](C5=CC(=O)OC5)[C@@H](OC(C)=O)C[C@]43O)C2)O[C@@H](C)[C@@H]1O | 3100 | 200 | 180 | No inhibition | 3200 |  |  | 
CO[C@H]1[C@H](O)[C@H](O[C@H]2CC[C@@]3(C)[C@H](CC[C@@H]4[C@@H]3CC[C@]3(C)[C@@H](C5=CC(=O)OC5)CC[C@]43O)C2)O[C@@H](C)[C@@H]1O | 17 | 1 | 69 | 21 | 9.5 |  |  | 
C[C@H]1O[C@@H](O[C@H]2[C@@H](O)C[C@H](O[C@H]3[C@@H](O)C[C@H](O[C@H]4CC[C@@]5(C)[C@H](CC[C@@H]6[C@@H]5CC[C@]5(C)[C@@H](C7=CC(=O)OC7)CC[C@]65O)C4)O[C@@H]3C)O[C@@H]2C)C[C@H](O)[C@@H]1O [DIGITOXIN] | 1.7 | 1 | 0.3 | 10 | 8 | 0.1 | 0.2 | 0.6
